# Laboratory results from patent publication US7105562B2, “Geometrically restricted 3-cyclopentylidene-1,3-dihydroindol-2-ones as potent protein tyrosine kinase inhibitors” (Sugen, Inc., priority 2003, dated 2006).
# Molecular target: FGFR1 (Homo sapiens, UniProt P11362)
# Assay: FGFR1 Bioassay (in vitro kinase activity, ELISA)
# Assay type: biochemical
# Conditions: purified GST-FGFR1, poly(Glu-Tyr) substrate, read-out: FGFR IC50
# Experimental: This assay is used to measure the in vitro kinase activity of FGF1-R in an ELISA assay.
# 1. Costar 96-well ELISA plates (Corning Catalog # 3369).
# 2. Poly(Glu-Tyr) (Sigma Catalog # P0275).
# 4. 50 mM Hepes Buffer Solution.
# 5. Blocking Buffer (5% BSA/PBS).
# 6. Purified GST-FGFR1 (SUGEN, Inc.)
# 7. Kinase Dilution Buffer.
# Mix 500 μl 1M Hepes (GIBCO), 20 μl 5% BSA/PBS, 10 μl 100 mM sodium orthovanadate and 50 μl 5M NaCl.
# 9. ATP/MnCl2 phosphorylation mix: mix 20 μL ATP, 400 μL 1 M MnCl2 and 9.56 ml dH2O.
# 10. NUNC 96-well V bottom polypropylene plates (Applied Scientific Catalog # AS-72092).
# Add 500 μL TWEEN to 1 liter TBS.
# 13. Rabbit polyclonal anti-phosphotyrosine serum (SUGEN, Inc.).
# 14. Goat anti-rabbit IgG peroxidase conjugate (Biosource, Catalog # ALI0404).
# 1. Coat Costar 96 well ELISA plates with 1 μg per well Poly(Glu-Tyr) in 100 μl PBS. Store overnight at 4° C.
# 2. Wash coated plates once with PBS.
# 3. Add 150 μL of 5% BSA/PBS Blocking Buffer to each well. Incubate, with shaking, for 1 hr at room temperature.
# 4. Wash plate 2× with PBS, then once with 50 mM Hepes. Pat plates on a paper towel to remove excess liquid and bubbles.
# 5. Add 25 μL of 0.4 mM test compound in 4% DMSO or 4% DMSO alone (controls) to plate.
# 6. Dilute purified GST-FGFR1 in Kinase Dilution Buffer (5 ng kinase/50 ul KDB/well).
# 7. Add 50 μL of diluted kinase to each well.
# 8. Start kinase reaction by adding 25 μl/well of freshly prepared ATP/Mn++ (0.4 ml 1M MnCl2, 40 μL 10 mM ATP, 9.56 ml dH2O), freshly prepared).
# 9. Stop reaction with 25 μL of 0.5M EDTA.
# 10. Wash plate 4× with fresh TBST.
# 11. Make up Antibody Dilution Buffer: For 50 ml, mix 5 ml of 5% BSA, 250 μl of 5% milk and 50 μl of 100 mM sodium vanadate, bring to final volume with 0.05% TBST.
# 12. Add 100 μl per well of anti-phosphotyrosine (1:10000 dilution in ADB). Incubate, with shaking for 1 hr. at room temperature.
# 14. Add 100 μl per well of Biosource Goat anti-rabbit IgG peroxidase conjugate (1:6000 dilution in ADB). Incubate, with shaking for 1 hr. at room temperature.
# 15. Wash as in step 10 and then with PBS to remove bubbles and excess TWEEN.
# 16. Add 100 μl of ABTS/H2O2 solution to each well.
# 17. Incubate, with shaking, for 10 to 20 minutes. Remove any bubbles.
# 18. Read assay on Dynatech MR7000 ELISA reader: test filter at 410 nM, reference filter at 630 nM.
# Sequence of FGFR1 (P11362 22-822, species assumed): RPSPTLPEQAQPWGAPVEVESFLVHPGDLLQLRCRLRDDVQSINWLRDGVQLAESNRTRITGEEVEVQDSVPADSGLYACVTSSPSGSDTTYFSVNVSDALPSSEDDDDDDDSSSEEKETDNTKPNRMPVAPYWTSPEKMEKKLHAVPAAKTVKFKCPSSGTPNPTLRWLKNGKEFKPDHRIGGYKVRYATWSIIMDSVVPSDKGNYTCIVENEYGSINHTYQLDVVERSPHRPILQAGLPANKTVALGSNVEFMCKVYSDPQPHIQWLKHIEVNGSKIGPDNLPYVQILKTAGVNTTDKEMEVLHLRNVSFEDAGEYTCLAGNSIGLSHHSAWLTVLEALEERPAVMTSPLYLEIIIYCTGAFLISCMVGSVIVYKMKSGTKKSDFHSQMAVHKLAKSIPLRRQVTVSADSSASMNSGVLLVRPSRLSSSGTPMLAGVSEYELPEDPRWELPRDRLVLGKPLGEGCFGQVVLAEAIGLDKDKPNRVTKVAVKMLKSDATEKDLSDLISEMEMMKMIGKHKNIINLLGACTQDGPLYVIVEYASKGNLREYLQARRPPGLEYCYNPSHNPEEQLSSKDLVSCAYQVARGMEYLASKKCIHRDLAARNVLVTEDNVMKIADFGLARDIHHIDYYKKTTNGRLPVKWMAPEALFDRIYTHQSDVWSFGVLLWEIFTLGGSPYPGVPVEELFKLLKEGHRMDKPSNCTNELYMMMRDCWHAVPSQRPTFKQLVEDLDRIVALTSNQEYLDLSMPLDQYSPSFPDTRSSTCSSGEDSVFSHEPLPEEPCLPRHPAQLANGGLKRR
row,Compound,IC50 [nM]
1,"CCOC(=O)c1c(C)[nH]c2c1CC/C2=C1/C(=O)Nc2ccc(S(=O)(=O)Cc3c(Cl)cccc3Cl)cc21 [Example 2, 6-[5-(2,6-Dichloro-phenylmethanesulfonyl)-2-oxo-1,2-dihydro-indol-(3Z)-ylidene]-2-methyl-1,4,5,6-tetrahydro-cyclopenta[b]pyrrole-3-carboxylic acid ethyl ester]",2500
2,"CCOC(=O)c1c(C)[nH]c2c1CC/C2=C1/C(=O)Nc2ccc(S(=O)(=O)NC)cc21 [Example 3, 2-Methyl-6-[5-methylsulfamoyl-2-oxo-1,2-dihydro-indol-(3Z)-ylidene]-1,4,5,6-tetrahydro-cyclopenta[b]pyrrole-3-carboxylic acid ethyl ester]",600
3,"CCOC(=O)c1c(C)[nH]c2c1CC/C2=C1/C(=O)Nc2ccc(S(C)(=O)=O)cc21 [Example 6, 6-[5-Methanesulfonyl-2-oxo-1,2-dihydro-indol-(3Z)-ylidene]-2-methyl-1,4,5,6-tetrahydro-cyclopenta[b]pyrrole-3-carboxylic acid ethyl ester]",14500
4,"CCOC(=O)c1c(C)[nH]c2c1CC/C2=C1/C(=O)Nc2ccc(S(=O)(=O)N(C)C)cc21 [Example 7, 6-[5-Dimethylsulfamoyl-2-oxo-1,2-dihydro-indol-(3Z)-ylidene]-2-methyl-1,4,5,6-tetrahydro-cyclopenta[b]pyrrole-3-carboxylic acid ethyl ester]",> 20000
5,"CCOC(=O)c1c(C)[nH]c2c1CC/C2=C1/C(=O)Nc2ccc(S(=O)(=O)NC(C)C)cc21 [Example 8, 6-[5-Isopropylsulfamoyl-2-oxo-1,2-dihydro-indol-(3Z)-ylidene]-2-methyl-1,4,5,6-tetrahydro-cyclopenta[b] pyrrole-3-carboxylic acid ethyl ester]",> 20000
6,"CCOC(=O)c1c(C)[nH]c2c1CC/C2=C1/C(=O)Nc2ccc(S(=O)(=O)CC)cc21 [Example 9, 6-[5-Ethanesulfonyl-2-oxo-1,2-dihydro-indol-(3Z)-ylidene]-2-methyl-1,4,5,6-tetrahydro-cyclopenta[b]pyrrole-3-carboxylic acid ethyl ester]",530
7,"CNS(=O)(=O)c1ccc2c(c1)C(=C1CCCC1)C(=O)N2 [Example 15, 3-Cyclopentylidene-2-oxo-2,3-dihydro-1H-indole-5-sulfonic acid methylamide]",> 20000
8,COc1ccccc1-c1ccc2c(c1)NC(=O)/C2=C1/CCc2c1[nH]c(C)c2C(=O)N1CCC[C@H]1CN1CCCC1 [Example 20],480
9,"Cc1[nH]c2c(c1C(=O)N1CCC[C@H]1CN1CCCC1)CC/C2=C1/C(=O)Nc2c(Cl)cccc21 [Example 21, 7-Chloro-3-[2-methyl-3-((S)-2-pyrrolidin-1-ylmethyl-pyrrolidine-1-carbonyl)-4,5-dihydro-1H-cyclopenta[b]pyrrol-(6Z)-ylidene]-1,3-dihydro-indol-2-one]",1900
10,"Cc1[nH]c2c(c1C(=O)N1CCC[C@H]1CN1CCCC1)CC/C2=C1/C(=O)Nc2ncccc21 [Example 22, 3-[2-Methyl-3-((S)-2-pyrrolidin-1-ylmethyl-pyrrolidine-1-carbonyl)-4,5-dihydro-1H-cyclopenta[b]pyrrol-(6Z)-ylidene]-1,3-dihydro-pyrrolo[2,3-b]pyridin-2-one]",2070
11,"COc1ccc(-c2ccc3c(c2)NC(=O)/C3=C2/CCc3c2[nH]c(C)c3C(=O)N2CCC[C@H]2CN2CCCC2)cc1 [Example 23, 6-(4-Methoxy-phenyl)-3-[2-methyl-3-((S)-2-pyrrolidin-1-ylmethyl-pyrrolidine-1-carbonyl)-4,5-dihydro-1H-cyclopenta[b]pyrrol-(6Z)-ylidene]-1,3-dihydro-indol-2-one]",230

# Now those with a lower IC50, led by results:
row,IC50 [nM],Compound
1,15,"CNS(=O)(=O)c1ccc2c(c1)/C(=C1\CCc3c1[nH]c(C)c3C(=O)N1CCCC1CN1CCCC1)C(=O)N2 (stereo in doubt) [Example 13, 3-[2-Methyl-3-((R)-2-pyrrolidin-1-ylmethyl-pyrrolidine-1-carbonyl)-4,5-dihydro-1H-cyclopenta[b]pyrrol-(6Z)-ylidene]-2-oxo-2,3-dihydro-1H-indole-5-sulfonic acid methylamide]"
2,79,"CCOC(=O)c1c(C)[nH]c2c1CC/C2=C1/C(=O)Nc2ccccc21 [Example 1, 2-Methyl-6-[2-oxo-1,2-dihydro-indol-(3Z)-ylidene]-1,4,5,6-tetrahydro-cyclopenta[b]pyrrole-3-carboxylic acid ethyl ester]"
3,25,"CNS(=O)(=O)c1ccc2c(c1)/C(=C1\CCc3cc(C)[nH]c31)C(=O)N2 [Example 4, 3-[2-Methyl-4,5-dihydro-1H-cyclopenta[b]pyrrol-(6Z)-ylidene]-2-oxo-2,3-dihydro-1H-indole-5-sulfonic acid methylamide]"
4,22,"CNS(=O)(=O)c1ccc2c(c1)/C(=C1\CCc3c1[nH]c(C)c3C(=O)O)C(=O)N2 [Example 5, 2-Methyl-6-[5-methylsulfamoyl-2-oxo-1,2-dihydro-indol-(3Z)-ylidene]-1,4,5,6-tetrahydro-cyclopenta[b]pyrrole-3-carboxylic acid]"
5,< 18,"CNS(=O)(=O)c1ccc2c(c1)/C(=C1\CCc3c1[nH]c(C)c3C(=O)NCC(O)CN1CCCC1)C(=O)N2 (centres unmarked) [Example 10, 2-Methyl-6-[5-methylsulfamoyl-2-oxo-1,2-dihydro-indol-(3Z)-ylidene]-1,4,5,6-tetrahydro-cyclopenta[b]pyrrole-3-carboxylic acid (2-hydroxy-3-pyrrolidin-1-yl-propyl)-amide]"
6,20,"CNS(=O)(=O)c1ccc2c(c1)/C(=C1\CCc3c1[nH]c(C)c3C(=O)NCC(O)CNC1CC1)C(=O)N2 (centres unmarked) [Example 11, 2-Methyl-6-[5-methylsulfamoyl-2-oxo-1,2-dihydro-indol-(3Z)-ylidene]-1,4,5,6-tetrahydro-cyclopenta[b]pyrrole-3-carboxylic acid (3-cyclopropylamino-2-hydroxy-propyl)-amide]"
7,17,"CNS(=O)(=O)c1ccc2c(c1)/C(=C1\CCc3c1[nH]c(C)c3C(=O)NCCN(C)C)C(=O)N2 [Example 12, 2-Methyl-6-[5-methylsulfamoyl-2-oxo-1,2-dihydro-indol-(3Z)-ylidene]-1,4,5,6-tetrahydro-cyclopenta[b]pyrrole-3-carboxylic acid (2-dimethylamino-ethyl)-amide]"
8,100,"CCOC(=O)c1c(C)[nH]c2c1CC/C2=C1/C(=O)Nc2ccc(S(N)(=O)=O)cc21 [Example 14, 2-Methyl-6-[2-oxo-5-sulfamoyl-1,2-dihydro-indol-(3Z)-ylidene]-1,4,5,6-tetrahydro-cyclopenta[b]pyrrole-3-carboxylic acid ethyl ester]"
9,15,"CNS(=O)(=O)c1ccc2c(c1)/C(=C1\CCc3c1[nH]c(C)c3S(C)(=O)=O)C(=O)N2 [Example 16, 3-[3-Methanesulfonyl-2-methyl-4,5-dihydro-1H-cyclopenta[b]pyrrol-(6Z)-ylidene]-2-oxo-2,3-dihydro-1H-indole-5-sulfonic acid methylamide]"
10,40,"CNS(=O)(=O)c1ccc2c(c1)/C(=C1\CC(CC(=O)O)c3cc(OC)ccc31)C(=O)N2 (centres unmarked) [Example 17, {6-Methoxy-3-[5-methylsulfamoyl-2-oxo-1,2-dihydro-indol-(3Z)-ylidene]-indan-1-yl}-acetic acid]"
11,80,"Cc1[nH]c2c(c1C(=O)N1CCC[C@H]1CN1CCCC1)CC/C2=C1/C(=O)Nc2ccc(F)cc21 [Example 18, 5-Fluoro-3-[2-methyl-3-((S)-2-pyrrolidin-1-ylmethyl-pyrrolidine-1-carbonyl)-4,5-dihydro-1H-cyclopenta[b]pyrrol-(6Z)-ylidene]-1,3-dihydro-indol-2-one]"
12,210,"COc1ccc2c(c1)NC(=O)/C2=C1/CCc2c1[nH]c(C)c2C(=O)N1CCC[C@H]1CN1CCCC1 [Example 19, 6-Methoxy-3-[2-methyl-3-((S)-2-pyrrolidin-1-ylmethyl-pyrrolidine-1-carbonyl)-4,5-dihydro-1H-cyclopenta[b]pyrrol-(6Z)-ylidene]-1,3-dihydro-indol-2-one]"
